Residue numbers refer to the chain shown, from its start. Entries after “also recorded” stand apart in the source; their conditions may differ. Like-named read-outs stand apart in the source and are kept apart here.
Experiments:
wild-type TAS2R16 = biological target: T1, wild-type TAS2R16 (Homo sapiens, UniProt Q9NYV7); assay: Ca2+ flux assay, HEK-293T cells expressing wild-type TAS2R16 and Gα16gust44; format: cell-based; conditions: for activation of TAS2R16 (agonist screen): compounds screened at 10 mM, wild-type TAS2R16, Fig. 2a
T1 construct: FLAG (N); expressed in transfected cells; host or cells: HEK-293T
T1 sequence (Q9NYV7 1-291): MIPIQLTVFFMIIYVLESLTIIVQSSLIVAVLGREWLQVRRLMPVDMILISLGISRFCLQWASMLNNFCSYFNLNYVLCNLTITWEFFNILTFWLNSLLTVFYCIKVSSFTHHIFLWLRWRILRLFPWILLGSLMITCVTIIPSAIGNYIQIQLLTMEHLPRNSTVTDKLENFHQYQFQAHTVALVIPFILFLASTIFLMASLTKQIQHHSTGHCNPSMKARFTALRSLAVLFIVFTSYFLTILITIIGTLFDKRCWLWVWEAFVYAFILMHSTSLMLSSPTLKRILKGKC
Method: (§1) The TAS2R16 mutation library was tested for function using a Ca^2+ flux assay as described previously. Later screens of individual TAS2R16 mutant clones used 4-nitrophenyl-β-D-glucopyranoside. Briefly, HEK-293T cells, in poly-lysine coated, black 384-well plates with clear bottoms (Costar), were transfected with the TAS2R16 mutation library, and a plasmid expressing a Gα16 chimera containing the last 44 amino acids of rat gustducin (Gα16gust44). Cells were incubated for 22 hours at 37 °C then washed twice with a calcium indicator dye in HBSS containing 20 mM HEPES (Calcium 4 Assay kit, Molecular Devices), incubated with HBSS for 1.5 hr, then moved to a Flexstation II-384 (Molecular Devices) set at 32 °C. […] Concentrations for mutation library screening were chosen to be approximately 2 to 3 times higher than the EC50 values for the ligands to maximize the sensitivity of detecting decreases in signaling due to the mutation in each clone.
(§2) For Ca^2+ flux assays, the value of fluorescence at 30 seconds after ligand addition (the time of peak signal for wild-type TAS2R16) was used as the maximum value. […] Raw data obtained from surface expression and flux experiments were normalized to the values for wild-type TAS2R16 on each plate. Data sets were analyzed and represented as percentage over baseline signal. Mean and standard deviation values were calculated for each clone from replicate assay data.
(§3) Ligand dose-response data was analyzed with Graphpad Prism 5 software. Data was baseline subtracted and then fit using a sigmoidal dose-response (variable slope) equation.

W261A TAS2R16 = biological target: T2, W261A TAS2R16 (Homo sapiens, UniProt Q9NYV7, W261A); assay: Ca2+ flux assay, W261A TAS2R16 variant; format: cell-based; conditions: for activation of W261A variant: W261A TAS2R16, relative to wild-type; for decrease in EC50 with W261 mutation compared to WT: W261 to alanine or glycine vs WT
T2 construct: FLAG (N); expressed in transfected cells; host or cells: HEK-293T
T2 sequence (Q9NYV7 1-291 W261A): T1 sequence (Q9NYV7 1-291) with W261A
Method: as §1, §2, §3

W261G TAS2R16 = biological target: T3, W261G TAS2R16 (Homo sapiens, UniProt Q9NYV7, W261G); assay: Ca2+ flux assay, mutation library clone W261G; format: cell-based; conditions: W261G TAS2R16, relative to wild-type, Fig. 5A
T3 construct: FLAG (N); expressed in transfected cells; host or cells: HEK-293T
T3 sequence (Q9NYV7 whole entry W261G): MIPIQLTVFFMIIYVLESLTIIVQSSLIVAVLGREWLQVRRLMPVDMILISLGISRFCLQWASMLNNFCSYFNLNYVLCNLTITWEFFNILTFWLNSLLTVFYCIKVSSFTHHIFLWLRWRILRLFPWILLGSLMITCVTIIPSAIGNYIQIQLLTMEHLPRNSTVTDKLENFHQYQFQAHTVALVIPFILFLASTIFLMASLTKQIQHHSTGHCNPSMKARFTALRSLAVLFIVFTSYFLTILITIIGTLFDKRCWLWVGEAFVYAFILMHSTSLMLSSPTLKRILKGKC
Method: as §1
(§4) For Ca^2+ flux assays, the value of fluorescence at 30 seconds after ligand addition (the time of peak signal for wild-type TAS2R16) was used as the maximum value. […] Data sets were analyzed and represented as percentage over baseline signal. Mean and standard deviation values were calculated for each clone from replicate assay data.

S108T TAS2R16 = biological target: T4, S108T TAS2R16 (Homo sapiens, UniProt Q9NYV7, S108T); assay: Ca2+ flux assay, mutation library clone S108T; format: cell-based; conditions: library screening concentrations
T4 construct: FLAG (N); expressed in transfected cells; host or cells: HEK-293T
T4 sequence (Q9NYV7 1-291 S108T): T1 sequence (Q9NYV7 1-291) with S108T
Method: as §1, §2

N96T TAS2R16 = biological target: T5, N96T TAS2R16 (Homo sapiens, UniProt Q9NYV7, N96T); assay: Ca2+ flux assay, N96T TAS2R16 variant; format: cell-based; conditions: Fig. 7 dose-response
T5 construct: FLAG (N); expressed in transfected cells; host or cells: HEK-293T
T5 sequence (Q9NYV7 whole entry N96T): as the sequence (Q9NYV7 whole entry W261G) above, with N96T, G261W counted along it
Method: as §1, §4
(§5) Ligand dose-response data was analyzed with Graphpad Prism 5 software. […]

S228T TAS2R16 = biological target: T6, S228T TAS2R16 (Homo sapiens, UniProt Q9NYV7, S228T); assay: Ca2+ flux assay, mutation library clone S228T; format: cell-based; conditions: library screening concentrations
T6 construct: FLAG (N); expressed in transfected cells; host or cells: HEK-293T
T6 sequence (Q9NYV7 1-291 S228T): T1 sequence (Q9NYV7 1-291) with S228T
Method: as §1, §2

N96A TAS2R16 = biological target: T7, N96A TAS2R16 (Homo sapiens, UniProt Q9NYV7, N96A); assay: Ca2+ flux assay, N96A TAS2R16 variant; format: cell-based; conditions: Fig. 7 dose-response
T7 construct: FLAG (N); expressed in transfected cells; host or cells: HEK-293T
T7 sequence (Q9NYV7 whole entry N96A): as the sequence (Q9NYV7 whole entry W261G) above, with N96A, G261W counted along it
Method: as §1, §4, §5

TAS2R16 [1] = conditions: disaccharides; cited from earlier work
TAS2R16 [2] = conditions: cited from earlier work
TAS2R43 = conditions: cited from earlier work
TAS2R38 = conditions: cited from earlier work
C79A TAS2R16 = biological target: T8, C79A TAS2R16 (Homo sapiens, UniProt Q9NYV7, C79A); assay: Ca2+ flux assay, C79A TAS2R16 variant; format: cell-based; conditions: Figure S3
T8 construct: FLAG (N); expressed in transfected cells; host or cells: HEK-293T
T8 sequence (Q9NYV7 whole entry C79A): as the sequence (Q9NYV7 whole entry W261G) above, with C79A, G261W counted along it
Method: as §1, §4

[3] = Fig. 5b dose-response, wild-type TAS2R16, read-out: EC50 (WT)
[4] = Fig. 5b dose-response, W261A TAS2R16
[5] = Fig. 2d dose-response, wild-type TAS2R16, HEK-293T, read-out: EC50

## C=CCC(=NOS(=O)(=O)O)S[C@@H]1O[C@H](CO)[C@@H](O)[C@H](O)[C@H]1O (stereo in doubt) [sinigrin]
wild-type TAS2R16; wild-type TAS2R16, HEK-293T
  activation of wild-type TAS2R16: activation

## O=[N+]([O-])c1ccc(O[C@@H]2O[C@H](CO)[C@@H](O)[C@H](O)[C@H]2O)cc1 [4-NP-β-glucoside, 4-nitrophenyl-β-D-glucopyranoside]
wild-type TAS2R16; [3]
  EC50: 4900 µM
W261A TAS2R16; [4]
  EC50: 1800 µM
W261A TAS2R16
  activation of W261A variant: strongly activated; also recorded: higher than wild-type; also recorded: increased the activation
  decrease in EC50 with W261 mutation compared to WT: ~ 4 fold
W261G TAS2R16
  activation of W261G variant: higher than wild-type

## O=[N+]([O-])c1ccc(O[C@@H]2O[C@H](CO)[C@@H](O)[C@H](O)[C@@H]2O)cc1 [4-NP-β-mannoside, 4-nitrophenyl-β-D-mannopyranoside]
wild-type TAS2R16; [3]
  EC50: 800 µM
wild-type TAS2R16; Fig. 6 comparative dose-response, wild-type TAS2R16, read-out: EC50 (WT)
  EC50: 1200 µM
wild-type TAS2R16; Fig. 7 dose-response, wild-type TAS2R16, read-out: EC50 (WT)
  EC50: 1100 µM
wild-type TAS2R16; [5]
  EC50: 650 µM
wild-type TAS2R16; wild-type TAS2R16, Fig. 6A
  lower EC50 than 4-NP-β-glucoside: 4 fold
S108T TAS2R16
  Ca2+ flux signaling value: 103 % of wild-type
N96T TAS2R16
  EC50: 200 µM
S228T TAS2R16
  Ca2+ flux signaling value: 120 % of wild-type
W261A TAS2R16; [4]
  EC50: 200 µM
W261A TAS2R16
  activation of W261A variant: strongly activated; also recorded: increased the activation
  decrease in EC50 with W261 mutation compared to WT: ~ 4 fold
N96A TAS2R16
  EC50: 1000 µM

## N#C[C@H](O[C@@H]1O[C@H](CO[C@@H]2O[C@H](CO)[C@@H](O)[C@H](O)[C@H]2O)[C@@H](O)[C@H](O)[C@H]1O)c1ccccc1 [amygdalin]
TAS2R16 [1]
  activation of TAS2R16: activation

## CCCCCCO[C@@H]1O[C@H](CO)[C@@H](O)[C@H](O)[C@H]1O [hexyl-glucoside, hexyl-β-D-glucopyranoside]
wild-type TAS2R16; [5]
  EC50: 2100 µM
S108T TAS2R16
  Ca2+ flux signaling value: 122 % of wild-type
S228T TAS2R16
  Ca2+ flux signaling value: 122 % of wild-type

## OC[C@H]1O[C@@H](Sc2ccccc2)[C@H](O)[C@@H](O)[C@@H]1O [phenyl-β-D-thioglucopyranoside]
wild-type TAS2R16
  activation of TAS2R16 (agonist screen): moderate to robust activation
wild-type TAS2R16; wild-type TAS2R16, HEK-293T
  activation of wild-type TAS2R16: activation

## OC[C@H]1O[C@@H](Oc2ccccc2)[C@H](O)[C@@H](O)[C@@H]1O [phenyl-β-glucoside, phenyl-β-D-glucoside]
wild-type TAS2R16; Fig. 5b dose-response, wild-type TAS2R16
  EC50 (WT): high
wild-type TAS2R16; wild-type TAS2R16, HEK-293T
  activation of wild-type TAS2R16: substantially weaker activation
W261A TAS2R16; [4]
  EC50 (W261A): high

## CCCN(CCC)S(=O)(=O)c1ccc(C(=O)O)cc1 [probenecid]
TAS2R16 [2]
  action on TAS2R16: allosteric inhibitor
TAS2R43
  action on TAS2R43: allosteric inhibitor
TAS2R38
  action on TAS2R38: allosteric inhibitor

## CC(=O)N[C@H]1[C@H](Oc2ccccc2)O[C@H](CO)[C@@H](O)[C@@H]1O [β-glucosaminide, phenyl-N-acetyl-β-D-glucosaminide]
wild-type TAS2R16; [5]
  EC50: 2500 µM
wild-type TAS2R16
  activation of TAS2R16 (agonist screen): moderate to robust activation
C79A TAS2R16
  activation, % of wild-type activation: 90 % of wild-type
S108T TAS2R16
  Ca2+ flux signaling value: 132 % of wild-type
S228T TAS2R16
  Ca2+ flux signaling value: 105 % of wild-type

## gentiobiose
TAS2R16 [1]
  activation of TAS2R16: activation
